The results in this text go back to paper PMC12040169 (PLOS Biology, 2025).

This data set in a line: in vitro. The note with it: human, hela cells, % viability.
As for `CCn1cc(C(=O)NC2(c3cccc(OC)c3)CCCC2)cn1` [CBK283750], the viability at 28.5 h, 10 µM was 101%.
For `COc1ccc([C@@H]2CCN(C(=O)Cc3ccccc3F)C[C@H]2O)cc1` [CBK283756] the value was 100%; for `CN(C)C(=O)Cn1nc(-c2cccc(-n3cccc3)c2)oc1=O` [CBK283759], 103%; for `CCOC(=O)c1[nH]c(C)c(/C=C/C2=CCN(C)CC2)c1C` [CBK283761], 99.3%.
For `O=C(c1cccnc1)N1C2CCC1CC(c1ccc(F)cc1)C2` (stereo not drawn) [CBK283762] the value was 98.3%.
For `O=C(c1ccncc1)N1C2CCC1CC(c1ccc(F)cc1)C2` (stereo not drawn) [CBK283763] the value was 94.3%.
As to `COc1ccc2cc(C)c3n[nH]c(=O)n3c2c1` [CBK283765], the viability at 28.5 h, 10 µM amounted to 89%.
For the compound `COc1ccc2c(c1)cc(C)c1n[nH]c(=O)n12` [CBK283766], the viability at 28.5 h, 10 µM worked out at 76.7%.
In the case of `CCC(C(=O)N1CCC(O)(c2ccccn2)CC1)c1ccccc1` (stereo not drawn) [CBK283768], the viability at 28.5 h, 10 µM worked out at 93.1%.
On to `CN1CC(C(=O)N2C3CCC2CC(c2ccc(F)cc2)C3)CC1=O` (stereo not drawn) [CBK283769], for which the viability at 28.5 h, 10 µM was found to be 96.3%.
On to `O=C(c1cc2c(s1)CCC2)N1CCn2c(nnc2C2CC2)C1` [CBK283770], for which the viability at 28.5 h, 10 µM was found to be 96.6%.
As for `O=c1oc(-c2cccnc2)nn1Cc1ccccc1F` [CBK283774], the figure is 87.1%; as for `COC(=O)[C@H]1CN(C(=O)c2cccs2)C[C@@H]1c1ccccc1F` [CBK283775], 87.4%.
For `CCn1cc(C(=O)N2CCCC2c2nc3ccccc3[nH]2)c(C)n1` (stereo not drawn) [CBK283777] the value was 90.2%.
As for `CCn1cc(C(=O)N2CCCCC2c2nc3ccccc3[nH]2)c(C)n1` (stereo not drawn) [CBK283778], the figure is 91.5%; as for `Cc1nn(C)cc1C(=O)N1CCCCC1c1nc2ccccc2[nH]1` (stereo not drawn) [CBK283779], 84.7%.
On to `Fc1cccc(-c2nc3cnccn3c2NC2CCCC2)c1` [CBK283780], for which the viability at 28.5 h, 10 µM amounted to 81.4%.
Take `Cn1ccnc1C(NC(=O)N1CCCC1)c1ccc(F)c(F)c1` (stereo not drawn) [CBK283782]: the viability at 28.5 h, 10 µM amounted to 89%.
As for `Cn1ccnc1C(NC(=O)C1CCCC1)c1ccc(F)c(F)c1` (stereo not drawn) [CBK283784], the viability at 28.5 h, 10 µM worked out at 97%.
For `COC(=O)[C@H]1CN(C(=O)c2cscn2)C[C@@H]1c1ccc(F)cc1` [CBK283785] the value was 92.3%.
Take `Cn1c(=O)n(CC(=O)N2CCCc3ccccc32)c2cccnc21` [CBK283790]: the viability at 28.5 h, 10 µM worked out at 86.7%.
For `CN(C(=O)Cn1c(=O)n(C)c2ncccc21)C1CCCCC1` [CBK283791] the value was 81.5%; for `CC1CC(C)CN(C(=O)Cn2c(=O)n(C)c3ncccc32)C1` (stereo not drawn) [CBK283794], 93.8%; for `Cn1c(=O)n(CC(=O)NC23CC4CC(CC(C4)C2)C3)c2cccnc21` [CBK283795], 81.7%.
Turning to `CCn1nc2c(C)cc3ccc(OC)cc3n2c1=O` [CBK283796], the viability at 28.5 h, 10 µM came to 78.3%.
On to `O=C(c1cccc2ncccc12)N1CCC(c2ccncc2)CC1` [CBK283798], for which the viability at 28.5 h, 10 µM was found to be 84.2%.
For the compound `O=C(Cn1nc(-c2cc3c(s2)CCC3)oc1=O)NC1CC1` [CBK283800], the viability at 28.5 h, 10 µM came out at 101%.
For `O=C(NC1CC2(CCCC2)Oc2ccccc21)C1CCOC1` (stereo not drawn) [CBK283802] the value was 84.3%.
As for `CN1CCC2(CC1)CC(NC(=O)c1ccco1)c1ccccc1O2` (stereo not drawn) [CBK283804], the figure is 96.6%.
As for `COc1ccccc1CC(=O)N1CCn2cc(C(F)(F)F)nc2C1` [CBK283806], the figure is 84.5%.
In the case of `CCn1c(=O)n(CC(=O)NC2CCCCC2)c2cccnc21` [CBK283810], the viability at 28.5 h, 10 µM is 83.6%.
As for `CCn1c(=O)n(CC(=O)NCCc2ccccc2)c2cccnc21` [CBK283812], the figure is 76.1%; as for `O=C(c1cccnc1)C1CCN(C(=O)Cc2ccc(Cl)cc2)CC1` [CBK283813], 80.4%.
As for `O=C(c1cccnc1)C1CCN(C(=O)Cc2ccccc2F)CC1` [CBK283814], the figure is 87.5%; as for `Cc1occc1-c1nn(CCN2CCCCC2)c(=O)o1` [CBK283815], 96.8%.
For the compound `Cc1cccc2cc3c(nc12)OCC(=O)N(Cc1ccco1)C3` [CBK283816], the viability at 28.5 h, 10 µM amounted to 97.6%.
`COc1ccc2c(c1)C=C(/C=C/C1=CCN(C)CC1)CO2` [CBK283818]: the viability at 28.5 h, 10 µM was 81.1%.
As for `O=C(O)[C@H]1CN(C(=O)c2cccs2)C[C@@H]1c1ccccc1F` [CBK283819], the viability at 28.5 h, 10 µM was found to be 87.1%.
For `O=C(O)[C@H]1CN(C(=O)c2ccco2)C[C@@H]1c1ccccc1F` [CBK283820] the value was 80.6%.
As for `Cc1cc(C)c2cc(C)c3nn(CC(=O)N(C)C)c(=O)n3c2c1` [CBK283821], the figure is 81.8%; as for `CCn1c(=O)n(CC(=O)NCc2ccccc2)c2cccnc21` [CBK283824], 101%; as for `CCn1c(=O)n(CC(=O)N2C(C)CCCC2C)c2cccnc21` (stereo not drawn) [CBK283825], 102%.
For `CC(C)CC(NC(=O)c1ccco1)c1nc2cccnc2n1C` (stereo not drawn) [CBK283827] the value was 88.8%; for `CC(NC(=O)Cc1ccc(F)cc1)c1nc2cccnc2n1C(C)C` (stereo not drawn) [CBK283830], 88.7%; for `Cn1ccnc1C(NC(=O)N1CCCCC1)c1ccc(F)c(F)c1` (stereo not drawn) [CBK283832], 107%.
For the compound `O=C(CC1CC2CCC1C2)N1CCC(O)(c2ccccn2)CC1` (stereo not drawn) [CBK283833], the viability at 28.5 h, 10 µM is 92.7%.
For the compound `O=C(NCCn1nc(-c2cccs2)ccc1=O)c1cccs1` [CBK283836], the viability at 28.5 h, 10 µM came to 77%.
As for `CC(C)(C)C(=O)NCCn1nc(-c2cccs2)ccc1=O` [CBK283839], the figure is 103%; as for `O=C(NCCn1nc(-c2cccs2)ccc1=O)C1CCCC1` [CBK283840], 104%; as for `CCCNC(=O)Cn1c(=O)n(Cc2cccs2)c2ncccc21` [CBK283843], 101%.
In the case of `CC(C)(C)NC(=O)Cn1c(=O)n(Cc2cccs2)c2ncccc21` [CBK283844], the viability at 28.5 h, 10 µM was 104%.
As for `CC(NC(=O)c1ncoc1-c1ccc(F)cc1)c1ccccn1` (stereo not drawn) [CBK283846], the figure is 90.9%; as for `Cc1nn(Cc2ccccn2)c(=O)n2cccc12` [CBK283849], 95.1%; as for `O=C(Cn1ncc2cccn2c1=O)NCc1ccc(F)cc1` [CBK283851], 82.8%.
For `O=C(c1cccnc1)C1CCN(C(=O)c2ccccc2F)CC1` [CBK283853] the value was 95.1%; for `O=c1[nH]nc(-c2cccs2)n1-c1cccnc1` [CBK283854], 101%; for `CC(C)n1c(=O)n(CC(=O)N2CCc3ccccc32)c2cccnc21` [CBK283855], 103%.
As for `CCc1nn2c(O)cc(C)nc2c1-c1cccs1` [CBK283860], the figure is 90.7%; as for `O=C(Cn1c(=O)n(Cc2ccco2)c2ncccc21)N1CCCCC1` [CBK283862], 89.2%.
For `O=C(CC1CCCC1)NCCn1nc(-c2ccco2)ccc1=O` [CBK283864], the viability at 28.5 h, 10 µM amounted to 106%.
For `O=c1[nH]nc(-c2cccs2)n1-c1ccncc1` [CBK283868] the value was 93.2%; for `CCN(CC)C(=O)Cn1nc2c(C)cc3cc(C)ccc3n2c1=O` [CBK283871], 86.4%; for `Cc1ccc2c(c1)cc(C)c1nn(CC(=O)N3CCCC3)c(=O)n12` [CBK283872], 101%.
For `Cc1ccc2c(c1)cc(C)c1nn(CC(=O)NC(C)C)c(=O)n12` [CBK283874] the value was 83.5%.
For `Cc1ccc2c(c1)cc(C)c1nn(CC(=O)NC(C)(C)C)c(=O)n12` [CBK283875] the value was 87.5%.
As for `Cc1cc(C)c2c(c1)cc(C)c1nn(CC(=O)NC3CC3)c(=O)n12` [CBK283877], the viability at 28.5 h, 10 µM is 83.5%.
As for `Cc1cc2ccccc2n2c(=O)n(CC(=O)N3CCCC3)nc12` [CBK283880], the viability at 28.5 h, 10 µM came out at 101%.
As for `Cc1cc2ccccc2n2c(=O)n(CC(=O)NC3CCCC3)nc12` [CBK283884], the figure is 79.7%.
As for `CC(NC(=O)c1ncoc1-c1ccccc1)c1ccccn1` (stereo not drawn) [CBK283889], the figure is 92.6%; as for `CCn1c(=O)n(CC(=O)N2CCCC3CCCCC32)c2cccnc21` (stereo not drawn) [CBK283893], 87.3%.
Regarding `CCn1c(=O)n(CC(=O)NCc2ccc(F)cc2)c2cccnc21` [CBK283901], the viability at 28.5 h, 10 µM stood at 87.8%.
Turning to `CN(C)C(=O)Cn1c(=O)n(Cc2cccs2)c2ncccc21` [CBK283902], the viability at 28.5 h, 10 µM was found to be 81.7%.
As for `CCn1c(=O)n(CC(=O)N2CCCC2)c2cccnc21` [CBK283904], the figure is 107%; as for `Cn1c(=O)n(CC(=O)NCc2ccc(F)cc2)c2cccnc21` [CBK283908], 86.6%; as for `Cn1c(=O)n(CC(=O)NCCc2ccccc2)c2cccnc21` [CBK283910], 82.8%.
As for `Cn1c(=O)n(CC(=O)NCc2cccc(F)c2)c2cccnc21` [CBK283911], the figure is 105%; as for `Cc1ccnn1CCC(=O)N1CCn2cc(C(F)(F)F)nc2C1` [CBK283912], 110%; as for `Cn1c(=O)n(CC(=O)Nc2ccc(F)cc2)c2cccnc21` [CBK283919], 101%.
As for `C=CCNC(=O)C1CCN(c2nc3ccccc3n2CC)CC1` [CBK283920], the figure is 113%; as for `CCn1c(N2CCC(C(=O)NC3CC3)CC2)nc2ccccc21` [CBK283922], 92.7%.
Take `O=C(NC1CCCc2c1cnn2-c1ccc(F)cc1)C1CC1` (stereo not drawn) [CBK283928]: the viability at 28.5 h, 10 µM worked out at 111%.
As to `O=C(CN1CCCC1)NC1CCCc2c1cnn2-c1ccc(F)cc1` (stereo not drawn) [CBK283930], the viability at 28.5 h, 10 µM came out at 91.5%.
For `CC(C)n1c(=O)n(CCN2CCCCC2)c2cccnc21` [CBK283932] the value was 95.4%; for `c1ccc(CNc2c(-c3ccco3)nc3cnccn23)cc1` [CBK283933], 90.6%.
